PubChem BioAssay AID1963966 (Molecular Pharmacology Branch, DTP, NCI, 2024)

System: 935938-334-R-J1-PDC spheroids with HUVEC/MSC, viability
Experiment: Anticancer human tumor 935938-334-R-J1-PDC patient-derived small intestine adenocarcinoma cell line growth inhibition [PI3K]
Conditions: for IC50: curve of first compound; for viability, T/C: stronger effect = lower value; active means viability on the fitted dose curve at most 10% of control; inactive means the rest
Method in brief: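 We assembled tumor spheroids that included a stromal compartment of HUVEC and MSCs, then exposed them to targeted agents alone and together with PI3K pathway inhibitors. Concentration series descended by half-log from clinically achievable Cmax levels. Viability served as the endpoint.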

[1] = second compound 0.00316 µM, first compound 0.0316 µM
[2] = second compound 0.00316 µM, first compound 0.1 µM
[3] = second compound 0.01 µM, first compound 0.0316 µM
[4] = second compound 0.01 µM, first compound 0.1 µM
[5] = second compound 0.0316 µM, first compound 0.0316 µM
[6] = second compound 0.0316 µM, first compound 0.1 µM
[7] = second compound 0.1 µM, first compound 0.0316 µM
[8] = second compound 0.1 µM, first compound 0.1 µM
[9] = second compound 0.316 µM, first compound 0.0316 µM
[10] = second compound 0.316 µM, first compound 0.1 µM
[11] = second compound 1 µM, first compound 0.0316 µM
[12] = second compound 1 µM, first compound 0.1 µM
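Further: compound exposure lasted seven days before viability was read.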
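Wherever viability, T/C is given: percent of vehicle DMSO treated spheroid viability so 100% = untreated.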

CC(=O)c1c(C)c2cnc(Nc3ccc(N4CCNCC4)cn3)nc2n(C2CCCC2)c1=O + COc1c(OCCCN2CCOCC2)ccc2c3n(c(=NC(=O)c4cnc(N)nc4)nc12)CCN3
0.621 nM: IC50 (second compound 0.1 µM)
< 0.316 nM: IC50 (second compound 0.316 µM) | IC50 (second compound 1 µM)
> 100 nM: IC50 (second compound 0.00316 µM) | IC50 (second compound 0.01 µM) | IC50 (second compound 0.0316 µM)
inactive: viability, T/C (second compound 0.00316 µM, first compound 0.000316 µM) 94.8% | viability, T/C (second compound 0.00316 µM, first compound 0.001 µM) 98.7% | viability, T/C (second compound 0.00316 µM, first compound 0.00316 µM) 80.2% | viability, T/C (second compound 0.00316 µM, first compound 0.01 µM) 113% | viability, T/C [1] 110% | viability, T/C [2] 57.4% | viability, T/C (second compound 0.01 µM, first compound 0.000316 µM) 99.7% | viability, T/C (second compound 0.01 µM, first compound 0.001 µM) 90.8% | viability, T/C (second compound 0.01 µM, first compound 0.00316 µM) 80.4% | viability, T/C (second compound 0.01 µM, first compound 0.01 µM) 90.1% | viability, T/C [3] 78.4% | viability, T/C [4] 56.3% | viability, T/C (second compound 0.0316 µM, first compound 0.000316 µM) 81.8% | viability, T/C (second compound 0.0316 µM, first compound 0.001 µM) 74.7% | viability, T/C (second compound 0.0316 µM, first compound 0.00316 µM) 68.3% | viability, T/C (second compound 0.0316 µM, first compound 0.01 µM) 63.2% | viability, T/C [5] 63.8% | viability, T/C [6] 48.6% | viability, T/C (second compound 0.1 µM, first compound 0.000316 µM) 54.4% | viability, T/C (second compound 0.1 µM, first compound 0.001 µM) 48.6% | viability, T/C (second compound 0.1 µM, first compound 0.00316 µM) 37.9% | viability, T/C (second compound 0.1 µM, first compound 0.01 µM) 42% | viability, T/C [7] 39.7% | viability, T/C [8] 35.6% | viability, T/C (second compound 0.316 µM, first compound 0.000316 µM) 39.9% | viability, T/C (second compound 0.316 µM, first compound 0.001 µM) 32.6% | viability, T/C (second compound 0.316 µM, first compound 0.00316 µM) 29.2% | viability, T/C (second compound 0.316 µM, first compound 0.01 µM) 33.3% | viability, T/C [9] 27.9% | viability, T/C [10] 35.3% | viability, T/C (second compound 1 µM, first compound 0.000316 µM) 38.4% | viability, T/C (second compound 1 µM, first compound 0.001 µM) 35.2% | viability, T/C (second compound 1 µM, first compound 0.00316 µM) 35.3% | viability, T/C (second compound 1 µM, first compound 0.01 µM) 39.6% | viability, T/C [11] 30.2% | viability, T/C [12] 31%

CNC(=O)c1ccc(N2C(=S)N(c3ccc(C#N)c(C(F)(F)F)c3)C(=O)C2(C)C)cc1F + COc1c(OCCCN2CCOCC2)ccc2c3n(c(=NC(=O)c4cnc(N)nc4)nc12)CCN3
inactive: viability, T/C [1] 89.8% | viability, T/C [2] 76.3% | viability, T/C (second compound 0.00316 µM, first compound 0.316 µM) 74.8% | viability, T/C (second compound 0.00316 µM, first compound 1 µM) 66.8% | viability, T/C (second compound 0.00316 µM, first compound 3.16 µM) 103% | viability, T/C (second compound 0.00316 µM, first compound 10 µM) 93.4% | viability, T/C [3] 87.6% | viability, T/C [4] 96.8% | viability, T/C (second compound 0.01 µM, first compound 0.316 µM) 102% | viability, T/C (second compound 0.01 µM, first compound 1 µM) 85.8% | viability, T/C (second compound 0.01 µM, first compound 3.16 µM) 104% | viability, T/C (second compound 0.01 µM, first compound 10 µM) 92.7% | viability, T/C [5] 84.5% | viability, T/C [6] 85.3% | viability, T/C (second compound 0.0316 µM, first compound 0.316 µM) 82.1% | viability, T/C (second compound 0.0316 µM, first compound 1 µM) 81% | viability, T/C (second compound 0.0316 µM, first compound 3.16 µM) 76.6% | viability, T/C (second compound 0.0316 µM, first compound 10 µM) 66.6% | viability, T/C [7] 62.9% | viability, T/C [8] 42.6% | viability, T/C (second compound 0.1 µM, first compound 0.316 µM) 49.1% | viability, T/C (second compound 0.1 µM, first compound 1 µM) 44.5% | viability, T/C (second compound 0.1 µM, first compound 3.16 µM) 42.9% | viability, T/C (second compound 0.1 µM, first compound 10 µM) 40.2% | viability, T/C [9] 43.3% | viability, T/C [10] 29.4% | viability, T/C (second compound 0.316 µM, first compound 0.316 µM) 31.3% | viability, T/C (second compound 0.316 µM, first compound 1 µM) 32.4% | viability, T/C (second compound 0.316 µM, first compound 3.16 µM) 36.7% | viability, T/C (second compound 0.316 µM, first compound 10 µM) 24.4% | viability, T/C [11] 34.9% | viability, T/C [12] 30.6% | viability, T/C (second compound 1 µM, first compound 0.316 µM) 38.3% | viability, T/C (second compound 1 µM, first compound 1 µM) 34.2% | viability, T/C (second compound 1 µM, first compound 3.16 µM) 29.3% | viability, T/C (second compound 1 µM, first compound 10 µM) 24.8%
< 31.6 nM: IC50 (second compound 0.316 µM) | IC50 (second compound 1 µM)
69.4 nM: IC50 (second compound 0.1 µM)
> 10000 nM: IC50 (second compound 0.00316 µM) | IC50 (second compound 0.01 µM) | IC50 (second compound 0.0316 µM)

Cn1cnc2c(F)c(Nc3ccc(Br)cc3Cl)c(C(=O)NOCCO)cc21 + COc1c(OCCCN2CCOCC2)ccc2c3n(c(=NC(=O)c4cnc(N)nc4)nc12)CCN3
60.9 nM: IC50 (second compound 0.00316 µM)
< 9.49 nM: IC50 (second compound 0.1 µM) | IC50 (second compound 0.316 µM) | IC50 (second compound 1 µM)
40.3 nM: IC50 (second compound 0.0316 µM)
56.6 nM: IC50 (second compound 0.01 µM)
inactive: viability, T/C (second compound 0.00316 µM, first compound 0.00949 µM) 70.9% | viability, T/C (second compound 0.00316 µM, first compound 0.03 µM) 55.8% | viability, T/C (second compound 0.00316 µM, first compound 0.0949 µM) 49.6% | viability, T/C (second compound 0.00316 µM, first compound 0.3 µM) 30.8% | viability, T/C (second compound 0.00316 µM, first compound 0.949 µM) 30.9% | viability, T/C (second compound 0.00316 µM, first compound 3 µM) 23.4% | viability, T/C (second compound 0.01 µM, first compound 0.00949 µM) 76.8% | viability, T/C (second compound 0.01 µM, first compound 0.03 µM) 63.6% | viability, T/C (second compound 0.01 µM, first compound 0.0949 µM) 36.4% | viability, T/C (second compound 0.01 µM, first compound 0.3 µM) 32.6% | viability, T/C (second compound 0.01 µM, first compound 0.949 µM) 22.6% | viability, T/C (second compound 0.01 µM, first compound 3 µM) 18.4% | viability, T/C (second compound 0.0316 µM, first compound 0.00949 µM) 64.5% | viability, T/C (second compound 0.0316 µM, first compound 0.03 µM) 51.7% | viability, T/C (second compound 0.0316 µM, first compound 0.0949 µM) 42.4% | viability, T/C (second compound 0.0316 µM, first compound 0.3 µM) 27% | viability, T/C (second compound 0.0316 µM, first compound 0.949 µM) 22.2% | viability, T/C (second compound 0.0316 µM, first compound 3 µM) 20.3% | viability, T/C (second compound 0.1 µM, first compound 0.00949 µM) 31.4% | viability, T/C (second compound 0.1 µM, first compound 0.03 µM) 29.9% | viability, T/C (second compound 0.1 µM, first compound 0.0949 µM) 20.9% | viability, T/C (second compound 0.1 µM, first compound 0.3 µM) 16.2% | viability, T/C (second compound 0.1 µM, first compound 0.949 µM) 17.3% | viability, T/C (second compound 0.1 µM, first compound 3 µM) 14.1% | viability, T/C (second compound 0.316 µM, first compound 0.00949 µM) 26.8% | viability, T/C (second compound 0.316 µM, first compound 0.03 µM) 21.4% | viability, T/C (second compound 0.316 µM, first compound 0.0949 µM) 19.4% | viability, T/C (second compound 0.316 µM, first compound 0.3 µM) 17.7% | viability, T/C (second compound 0.316 µM, first compound 0.949 µM) 18.9% | viability, T/C (second compound 0.316 µM, first compound 3 µM) 15% | viability, T/C (second compound 1 µM, first compound 0.00949 µM) 29% | viability, T/C (second compound 1 µM, first compound 0.03 µM) 24.4% | viability, T/C (second compound 1 µM, first compound 0.0949 µM) 21.4% | viability, T/C (second compound 1 µM, first compound 0.3 µM) 21.3% | viability, T/C (second compound 1 µM, first compound 0.949 µM) 17.9% | viability, T/C (second compound 1 µM, first compound 3 µM) 14%
